# Columns and labels:
# Rap1 = test: Prenylation of Rap1 in Neuro2A cells, western blotting; type: cell-based, mouse; details: 100 nM; with GGTI-298; percentage of control (GGTI only)
# Protocol: Mouse neuroblastoma Neuro2A cells were cultured in DMEM supplemented with 10% FBS for 24 hrs. The cells were treated with 102GGA derivative compounds for 24 hrs first before GGTase inhibitor GGTI-298 was added to the culture medium for additional 24 hr incubation. […] Both un-prenylated and total Rap1 protein bands were quantified using Image J and normalized to their respective loading control GAPDH. The results for control and each compound treatment were calculated as the ratio of normalized un-prenylated Rap1 to total Rap1, and averaged from two biological repeats of one experiment. The final results were presented as a percentage of the control treatments (GGTI only) from the same batch experiment. The data shown in the chart were averaged from two repeats of one experiment and presented as the ratio of normalized un-prenylated Rap1 to total Rapt Compound ID numbers in table refer to structures in Table 1 and Table 2.
# HSP70 = HSP70 levels in Neuro 2a cells, ELISA; type: cell-based, mouse; details: 48 hrs compound then 24 hrs GGTI-298
# Protocol: Mouse neuroblastoma 2a cells were cultured in DMEM with 10% FBS for 24 hrs. […] After 24 hrs cells were harvested and lysates were prepared and analyzed by ELISA for HSP70. Compound ID numbers in table refer to structures in Table 1 and Table 2.
SMILES,unprenylated/total RAP1 (%) (Rap1),"HSP70 level, ELISA signal (absence of compounds normalized as 1.00) (HSP70; 100 nM)","HSP70 level, ELISA signal (absence of compounds normalized as 1.00) (HSP70; 10uM)"
"CC(C)=CCC/C(C)=C/CC/C(C)=C/CC/C(C)=C/COC(=O)C1CCCCC1 [Compound 2f, 2E, 6E, 10E-Geranylgeranyl cyclohexanoate]",65,,
"CCOC(=O)CCNC(=O)OC/C=C(\C)CC/C=C(\C)CC/C=C(\C)CCC=C(C)C [Compound 7m, Ethoxycarbonyl ethyl 2E, 6E, 10E-geranylgeranyl carbamate]",54,0.89,
"CCCCCCNC(=O)OC/C=C(\C)CC/C=C(\C)CCC=C(C)C [Compound 8i, Hexyl 2E, 6E-farnesyl carbamate]",59,,0.97
"CCCCCNC(=O)OC(C)CC/C=C(\C)CC/C=C(\C)CCC=C(C)C (stereo not drawn) [Compound 20d, n-Pentyl 5E, 9E-farnesyl prop-2-yl carbamate]",67,,
"CC(C)=CCC/C(C)=C/CC/C(C)=C/CCC(C)OC(=O)NCC1CCCCC1 (stereo not drawn) [Compound 20h, Cyclohexylmethyl 5E, 9E-farnesyl prop-2-yl carbamate]",58,,
CC(=O)CC/C=C(\C)CC/C=C(\C)CCC=C(C)C [Compound 52],71,,
COCC(=O)C(C/C=C(\C)CC/C=C(\C)CC/C=C(\C)CCC=C(C)C)C(=O)OC (stereo not drawn) [Compound 80],,1.02,
COCCC(=O)C(C/C=C(\C)CC/C=C(\C)CC/C=C(\C)CCC=C(C)C)C(=O)OC (stereo not drawn) [Compound 81],,1.12,
CC(C)=CCC/C(C)=C/CC/C(C)=C/CC/C(C)=C/CC1CCCCC1=O (stereo not drawn) [Compound 84],72,,
CCOC(=O)C(C/C=C(\C)CC/C=C(\C)CC/C=C(\C)CCC=C(C)C)C(C)=O (stereo not drawn) [Compound 87],,0.95,
CC(=O)CC/C=C(\C)CCC=C1CCCCC1 [Compound 92],,0.92,
CCOC(=O)C=C1CCCCC1 [Compound 93],,0.87,
CC(C)=CCC/C(C)=C/CC/C(C)=C/CCC(=O)C(C)(C)C [Compound 100],,1.14,
CCC(=O)CC/C=C(\C)CC/C=C(\C)CCC=C(C)C [Compound 102],,1.04,
CON=C(C)CC/C=C(\C)CC/C=C(\C)CC/C=C(\C)CCC=C(C)C [Compound 104],,0.90,
C=CCO/N=C(\C)CC/C=C(\C)CC/C=C(\C)CC/C=C(\C)CCC=C(C)C [Compound 109],,1.12,
CC(C)=CCC/C(C)=C/CC/C(C)=C/CC/C(C)=C/CC/C(C)=N/OC1CCCCO1 (stereo not drawn) [Compound 111],,1.10,
CC(C)=CCC/C(C)=C/CC/C(C)=C/CC/C(C)=C/CC/C(C)=N/OCc1ccccc1 [Compound 113],,1.01,
CCC(=CCCC(C)=O)CC/C=C(\C)CC/C=C(\C)CCC=C(C)C [Compound 117],,1.08,
CC/C(=C\CCC(=O)C12CC3CC(CC(C3)C1)C2)CC/C=C(\C)CC/C=C(\C)CCC=C(C)C [Compound 127],77,,
CCC(=O)CC/C=C(\CC)CC/C=C(\C)CC/C=C(\C)CCC=C(C)C [Compound 128],67,,
CCOC(=O)/C=C(\CC)CC/C=C(\C)CC/C=C(\C)CCC=C(C)C [Compound 131],61,,
CC(=O)CC/C=C(\C)CC/C=C(\C)CC/C=C(\C)CC/C=C(\C)CCC=C(C)C [Compound 132],103,,
C=CCCC(=O)CC/C=C(\C)CC/C=C(\C)CC/C=C(\C)CCC=C(C)C [Compound 146],,1.13,
CC(C)=CCC/C(C)=C/CC/C(C)=C/CC/C(C)=C/CC1CCCCCC1=O (stereo not drawn) [Compound 147],,0.94,
